Source: US20200022964A1, “COMPOSITIONS AND METHODS FOR TREATMENT OF INFLAMMATORY AUTOIMMUNE DISEASES” (New York University, priority 2018, published 2020)

Experiments:
[1] = system: CD4+ T cells; test: Spleen CD4+ T cell differentiation in vitro and splenic T cell composition in vivo; format: cell-based, mice
Description: Spleen CD4^+T cell differentiation. Inducing spleen naive CD4^+T cell differentiation into T cell subsets was performed. Briefly, after preparing the splenic naïve CD4^+T cells from wild-type 8-12 week old C57BL/6 mice, the following cytokines were added to induce naive CD4^+T cell differentiation into T cell subsets: IL-2 (20 ng/mL), IL-12 (15 ng/mL), and anti-IL4 (5 μg/mL) for Thl; IL-2 (20 ng/mL), IL-4 (10 ng/mL), and anti-IFNγ (5 μg/mL) for Th2; IL-6 (20 ng/mL), TGFβ (3 ng/mL), anti-IFNγ (5 μg/mL), and anti-IL4 (5 μg/mL) for Th17; IL-2 (20 ng/mL), TGFβ (15 ng/mL), anti-IFNγ (5 μg/mL), and anti-IL4 (5 μg/mL) for Treg. […] Before collecting cells for fluorescence staining, 1 μL Golgi stop from Fixation/Permeabilization Solution Kit with BD GolgiPlug™ (555028,BD Biosciences) was added to each well and incubated in the plate for 4 hours. Cells were stained according to the kit specifications. For each T cell subtype, the combination of fluorescence dyes was as follows: FITC-CD4 (M1004502, Sungene) and Percp-cy5.5-IFNγ (45-7311-82, eBioscience) for Th1; FITC-CD4 and PE-IL4 (554389, BD pharmingen) for Th2; FITC-CD4 and PE-IL-17A (12-7177-81, eBioscience) for Th17; FITC-CD4, PE-CD25 (102008, Biolegend) and Alex-Fluo647-FoxP3 (51-5773-80, eBioscience) for Treg. Then the samples were analyzed at NYU core facilities using a FACS Calibur cell analyzer with CellQuest software. […] Frozen splenic tissue specimens from TNFα Tg mice treated with or without TFD or FFD were stained and analyzed dual immunofluorescence. All sections were permeabilized with 0.1% NP40 in PBS, and then blocked in 5% donkey serum for 30 min at RT, followed by incubated with anti-IFNg (Th1), anti-IL-4 (Th2), anti-IL17 (Th17) and anti-foxp3 (Treg) diluted in 5% donkey serum at 4° C. overnight. On the second day, after washed 3 times in PBS, the sections were incubated with Cy2-conjugated donkey anti-rat IgG for 30 min at RT. After wash, the sections were furthered stained with FITC conjugated anti-CD4 for I hour at RT. To determine the macrophage polarization, sections were double stained with anti-CD68 and iNOS (M1) or CD206 (M2). DAPI were used to stain the nuclei. The fluorescence intensity of cells was quantified by Image J software.

[2] = system: TNF-α; test: ELISA of TNF-α induced release of IL-1β and IL-6 in BMDMs; format: cell-based, mice; conditions: TNF-α 10 ng/mL; for TNF-α induced releases of IL-1β and IL-6: FFD 1, 10 μM, TFD 0.1, 1 μM, 48 hours
Description: (§1) Primary bone marrow derived macrophages (BMDMs) extraction. BMDMs were isolated from C57BL/6 and TNF-tg mice. After mice were sacrificed by cervical dislocation, the tibia and femur were isolated and both ends of the bones were cut to open the medullary cavity. Bone marrow cells were collected by centrifuge at 13000 g for 90 seconds and seeded in 6-well plates. Prior to their use in experiments, M-CSF (10 ng/ml, 576406, Biolegend) was added for 6 days to the BMDM culture medium.

[3] = system: TNF-tg mice; test: hTNF-tg mouse model of inflammatory arthritis; conditions: for serum levels of IL-1β and IL-6: compared with the control group; for clinical scores of arthritis: oral daily from 8 weeks of age, 13 weeks, FFD 10 mg/kg, TFD 50 mg/kg; for therapeutic effects (swelling score): treatment started at average score of approximately eight points, FFD 0.4, 2, 10 mg/kg, TFD 2, 10, 50 mg/kg oral, 8 weeks; for swelling score once the treatment resumed: treatment stopped at 17-week and resumed at 19-week time point
Description: Six mice in each group. Swelling scores were assessed weekly in accordance with the scoring system offered by the company. The swelling scores were taken as the sum of the scores from digits, paws, wrists and ankles with the highest possible score for each mouse at 24. The score system is: 20 digits (0=normal, 0.2=one or more swollen joints), 4 paws (0=normal, 1=noticeable swollen, 2=severe swollen), 2 wrists (0=normal, 1=noticeable swollen, 2=severe swollen), and 2 ankles (0=normal, 2=noticeable swollen, 4=severe swollen). At the end of treatment and observation, mice were sacrificed for collection of sera, spleens and ankles.

[4] = system: osteoclastogenesis in BMDMs; test: Osteoclastogenesis in BMDMs (TRAP staining); format: cell-based, mice; conditions: RANKL 100 ng/mL and TNF-α 10 ng/mL; FFD 10 μM, TFD 1 μM; 4 days
Description: Osteoclastogenesis. […] The cells were fixed with formalin and stained for tartrate-resistant acid phosphatase (TRAP) with a TRAP solution containing 100 mM sodium acetate buffer (pH 5.0), 50 mM sodium tartrate, 0.1 mg/ml sodium naphtol AS-MX phosphate, 0.6 mg/ml Fast Violet LB, and 0.1% Triton X-100. TRAP-positive cells appeared dark red and TRAP-positive multinucleated cells containing more than three nuclei (TRAP-MNCs) were visualized using light microscopy.

[5] = system: TNF-α; test: TNF-α induced cytokine expression and release in RAW264.7 cells (incl. H1R1 siRNA and cPLA2 knockout); format: cell-based; conditions: FFD 10 μM; for effect of suppression of H1R1 on the inhibition of TNF-induced cytokine release: RAW264.7 cells with H1R1 siRNAs
Description: qRT-PCR. Total RNA was extracted by RNeasy plus mini kit (74106, QIAGEN) and cDNA was synthesized using SuperScript® Reverse Transcriptase (M314C, promega Corporation). SYBR® Green PCR Master Mix (4309155, Applied Biosystems) was used to perform quantitative real-time PCR (qRT-PCR) and the reaction was performed on a StepOnePlus™ real-time PCR Systems (Applied Biosystems). The mRNA expression level of target genes was calculated by ΔΔCT and fold changes of mRNA levels were normalized to GAPDH.
Knock down of H1R1 by siRNA. BMDMs were transfected with siH1R1, or scrambled control siRNA (scRNAi) using lipofectamine 2000 (11668-019, Invitrogen) according to manufacturer's specifications. After 24 hours, supernatants and lysate were collected to detect cytokine secretion and protein expression, respectively.
Knock out of cPAL2 by CRISPR-Cas9. Knockout cells were generated in accordance with a previously published protocol. gRNA was inserted into the lentiCRISPR v2 vector. Packaging the inserted vector into lentivirus was completed by co-transfecting the lentiCRISPR v2, VSVG and ΔR6.7 in 293T cells. After packaging, we transfected the virus into RAW264.7 cells over 8 hours. Puromycin (2 μg/ml) was used to select the stably transfected RAW264.7 cells

[6] = system: TNF-α-induced genes; test: RNA-seq of TNF-α-treated BMDMs; format: cell-based, mice; conditions: TNF-α 10 ng/mL; FFD 10 μM, TFD 1 μM; 24 hours
Description: as §1
RNAseq and Transcription factors enrichment analysis. […] Total RNA was extracted by RNeasy Mini Kit (74106, Qiagen), and gene expression profiling analyzed by RNA-seq was performed by the NYU Genome Technology Center for RNA sequencing (Illumina HiSeq4000 Sequencing, HiSeq 4000 Single Read 50 Cycle Lane).

[7] = system: TNFRs expressed on cell surface; test: Flow cytometry of biotin-labelled TNF-α binding to RAW264.7 cell surface; format: cell-based; conditions: RAW264.7 cells; FFD 10 μM, TFD 1 μM overnight
Description: Flow cytometry. […] RAW 264.7 cells were seeded in a 12-well plate. […] Then the samples were analyzed at NYU core facilities using a FACS Calibur cell analyzer with CellQuest software.

| SMILES | differentiation of IFNγ-positive Th1 subpopulation [1] | differentiation of Th2, Th17 and regulatory T cells [1] | effect of AA supplementation on inhibition of TNF-α induced release of IL-1β and IL6 ([2]; AA 10 μM, FFD 10 μM) | TNF-α induced releases of IL-1β and IL-6 [2] | clinical scores of arthritis, comparison with MTX ([3]; prevention, FFD 10 mg/kg vs MTX 2 mg/kg oral daily) | serum levels of IL-1β and IL-6 ([3]; prevention) | clinical scores of arthritis ([3]; prevention) | therapeutic effects (swelling score) [3] | swelling score once the treatment resumed [3] | TNF-α-mediated osteoclastogenesis [4] | effect of suppression of H1R1 on the inhibition of TNF-induced cytokine release [5] | inhibition of TNF-α activity (IL-1β, IL-6 release) in cPLA2 knockout cells ([5]; cPLA2 KO RAW264.7 cells) | expression of TNF-α-induced genes (RNA-seq) [6] | binding of TNF-α to the cell surface [7] |
| --- | --- | --- | --- | --- | --- | --- | --- | --- | --- | --- | --- | --- | --- | --- |
| CC(C)(C(=O)O)c1ccc(C(O)CCCN2CCC(C(O)(c3ccccc3)c3ccccc3)CC2)cc1 (stereo not shown) [fexofenadine] | significantly suppressed | negligible effects | eliminated the inhibitory influence | abolished | more effective than MTX | significantly reduced | significant reduction | effective therapeutic effects in a dose-dependent manner | immediate reduction | markedly inhibited | did not affect | entirely or almost entirely lost | clearly downregulated | did not affect |
| CC(C)(C)c1ccc(C(O)CCCN2CCC(C(O)(c3ccccc3)c3ccccc3)CC2)cc1 (stereo not shown) [terfenadine] | significantly suppressed | negligible effects | – | abolished | – | significantly reduced | significant reduction | effective therapeutic effects in a dose-dependent manner | immediate reduction | markedly inhibited | did not affect | – | clearly downregulated | did not affect |
